Test results reported in patent publication US4623626A (priority 1982, dated 1986).
“Also recorded” adds a separate entry of the source. Read-outs that look alike come from different tables or passages of the source.

How the values were obtained:
[1] = biological target: T1, L-glutamic acid oxidase (enzyme of the present invention) (Streptomyces sp, UniProt Q8L3C7); experiment: Effects of additives on the enzyme activity (inhibition, activation); format: biochemical, Streptomyces sp. X-119-6; conditions: additive 1 mM
T1 construct: isolated and purified the enzyme of the present invention as a single enzyme protein from such a cultured product of the microorganism; made in house; host or cells: natural producer, Streptomyces sp; (strain X-119-6 per the earlier reading); enzyme purified from the cultured product, not recombinant
T1 sequence (Q8L3C7 15-390 limits assumed): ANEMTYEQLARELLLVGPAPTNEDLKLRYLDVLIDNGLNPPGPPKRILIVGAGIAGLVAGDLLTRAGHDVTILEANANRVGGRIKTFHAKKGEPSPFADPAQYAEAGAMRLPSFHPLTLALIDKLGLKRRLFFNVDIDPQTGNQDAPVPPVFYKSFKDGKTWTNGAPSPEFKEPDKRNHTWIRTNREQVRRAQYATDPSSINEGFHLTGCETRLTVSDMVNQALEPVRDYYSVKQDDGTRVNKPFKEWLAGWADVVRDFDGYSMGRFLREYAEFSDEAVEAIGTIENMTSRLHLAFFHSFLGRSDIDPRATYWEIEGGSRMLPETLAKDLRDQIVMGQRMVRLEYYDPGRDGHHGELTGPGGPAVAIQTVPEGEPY
T1 sequence (Q8L3C7 391-520 limits assumed): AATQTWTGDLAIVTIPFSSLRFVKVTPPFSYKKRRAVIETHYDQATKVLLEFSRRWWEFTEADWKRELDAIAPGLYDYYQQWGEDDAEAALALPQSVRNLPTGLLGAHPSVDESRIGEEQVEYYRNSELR
T1 sequence (Q8L3C7 521-701 limits assumed): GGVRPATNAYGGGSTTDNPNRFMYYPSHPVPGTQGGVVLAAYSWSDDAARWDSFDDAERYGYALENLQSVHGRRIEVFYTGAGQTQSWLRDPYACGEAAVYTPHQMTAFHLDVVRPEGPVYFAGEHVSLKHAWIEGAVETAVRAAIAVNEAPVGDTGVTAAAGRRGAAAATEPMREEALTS
Protocol: For examination of the effects of various additives on the enzyme activity of the present invention, enzymatic reaction was carried out in a reaction mixture (pH 7.4) containing each of the substances shown in Table 2 at a concentration of 1 mM.

[2] = tested on: glutamic acid oxidase (known enzyme); conditions: cited from earlier work
[3] = biological target: T1, L-glutamic acid oxidase (enzyme of the present invention); experiment: km values of the enzyme of the present invention; format: biochemical, Streptomyces sp. X-119-6; conditions: pH 7.4
Protocol: That is, 1 ml of 0.1 M potassium phosphate buffer (pH 7.4) containing 10 mM sodium L-glutamate was charged into an oxygen electrode cell and 10 μl of an enzyme solution was added thereto to measure the oxygen consumption rate. One unit of enzyme was determined as the amount of enzyme which consumes 1μ mol of oxygen per minute at 30° C. in the absence of catalase (unit: hereinafter abbreviated as "U").

[4] = biological target: T1, L-glutamic acid oxidase (enzyme of the present invention); experiment: Substrate specificity of the enzyme of the present invention, oxygen electrode method; format: biochemical, Streptomyces sp. X-119-6
Protocol: The concentration of each substrate was 10 mM, and the reactions were carried out at pH 7.4 (0.1 M potassium phosphate buffer) and pH 6.0 (0.1 M acetate buffer).

[5] = tested on: glutamic acid oxidase (known enzyme); conditions: cited from earlier work; for activity of the known enzyme for the substrate: relative to L-glutamic acid; for relative activity of the known enzyme: velocity for L-glutamic acid given as 100
[6] = pH of 6.0 or less or pH 10.0 or more

Compound: [Cl][Cu][Cl] [CuCl2, cupric chloride]
- inhibition of the activity of the enzyme of the present invention ([1]; pH 7.4): not inhibited at all
- inhibition of the known enzyme [2]: completely inhibited

Compound: [Cu+2] [copper ions]
- inhibition of the known enzyme [2]: Substantially completely inhibited; also recorded: markedly inhibited

Compound: N[C@@H](CC(=O)O)C(=O)O [L-Aspartic acid]
- Km [3]: 29 mM
- activity of the enzyme of the present invention for the substrate ([4]; pH 6.0): substantially no activity
- activity of the known enzyme for the substrate [5]: ≤ 0.1%
- action of the enzyme of the present invention on the substrate [6]: substantially no action

Compound: [Ca+2].[Cl-].[Cl-] [CaCl2]
- Relative activity ([1]; reaction mixture pH 7.4, no addition = 100): 100.0

Compound: N[C@H](CCC(=O)O)C(=O)O [D-Glutamic acid]
- activity of the enzyme of the present invention for the substrate [4]: substantially no activity

Compound: NC(=O)CC[C@H](N)C(=O)O [L-Glutamine]
- activity of the enzyme of the present invention for the substrate [4]: substantially no activity
- activity of the known enzyme for the substrate [5]: 8.4%
- relative activity of the known enzyme [5]: 8.4

Compound: N[C@@H](Cc1c[nH]cn1)C(=O)O [L-Histidine]
- activity of the enzyme of the present invention for the substrate [4]: substantially no activity
- activity of the known enzyme for the substrate [5]: 6.8%
- relative activity of the known enzyme [5]: 6.8
